Blank lines part the entries; values can stand above or below the compound they belong to. The source made the active and inactive calls. The rule behind the calls is not given here.
How the values were obtained:
[1] = biological target: T1, Sodium/glucose cotransporter 1 (Homo sapiens) (UniProt P13866); test: Inhibition of human small intestinal SGLT1 expressed in CHOK1 cells assessed as decrease in [14C]-AMG uptake at 300 nM preincubated for 10 mins followed by [14C]-AMG addition and measured after 2 hrs by TopCount method relative to control; format: cell-based
T1 sequence (whole entry): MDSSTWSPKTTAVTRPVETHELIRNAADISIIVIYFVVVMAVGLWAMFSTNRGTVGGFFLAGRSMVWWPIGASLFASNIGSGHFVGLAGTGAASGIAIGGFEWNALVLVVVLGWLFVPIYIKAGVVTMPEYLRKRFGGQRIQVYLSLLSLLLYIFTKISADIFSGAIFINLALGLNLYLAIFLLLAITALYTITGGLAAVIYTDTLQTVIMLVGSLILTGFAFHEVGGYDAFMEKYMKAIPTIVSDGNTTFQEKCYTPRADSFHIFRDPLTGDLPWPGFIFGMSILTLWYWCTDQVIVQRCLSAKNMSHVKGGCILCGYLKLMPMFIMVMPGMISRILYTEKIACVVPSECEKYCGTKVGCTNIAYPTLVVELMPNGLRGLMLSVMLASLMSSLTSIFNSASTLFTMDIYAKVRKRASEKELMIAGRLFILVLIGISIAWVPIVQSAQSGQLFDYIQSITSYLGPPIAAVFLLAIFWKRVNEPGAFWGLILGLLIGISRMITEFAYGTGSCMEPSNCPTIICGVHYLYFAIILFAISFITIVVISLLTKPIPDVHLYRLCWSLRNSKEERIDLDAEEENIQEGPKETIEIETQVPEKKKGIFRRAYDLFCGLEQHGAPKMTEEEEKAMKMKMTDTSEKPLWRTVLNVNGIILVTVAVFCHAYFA

[2] = biological target: T2, Sodium/glucose cotransporter 2 (Homo sapiens) (UniProt P31639); test: Inhibition of human kidney SGLT2 expressed in CHOK1 cells assessed as decrease in [14C]-AMG uptake at 30 nM preincubated for 10 mins followed by [14C]-AMG addition and measured after 2 hrs by TopCount method relative to control; format: cell-based
T2 sequence (whole entry): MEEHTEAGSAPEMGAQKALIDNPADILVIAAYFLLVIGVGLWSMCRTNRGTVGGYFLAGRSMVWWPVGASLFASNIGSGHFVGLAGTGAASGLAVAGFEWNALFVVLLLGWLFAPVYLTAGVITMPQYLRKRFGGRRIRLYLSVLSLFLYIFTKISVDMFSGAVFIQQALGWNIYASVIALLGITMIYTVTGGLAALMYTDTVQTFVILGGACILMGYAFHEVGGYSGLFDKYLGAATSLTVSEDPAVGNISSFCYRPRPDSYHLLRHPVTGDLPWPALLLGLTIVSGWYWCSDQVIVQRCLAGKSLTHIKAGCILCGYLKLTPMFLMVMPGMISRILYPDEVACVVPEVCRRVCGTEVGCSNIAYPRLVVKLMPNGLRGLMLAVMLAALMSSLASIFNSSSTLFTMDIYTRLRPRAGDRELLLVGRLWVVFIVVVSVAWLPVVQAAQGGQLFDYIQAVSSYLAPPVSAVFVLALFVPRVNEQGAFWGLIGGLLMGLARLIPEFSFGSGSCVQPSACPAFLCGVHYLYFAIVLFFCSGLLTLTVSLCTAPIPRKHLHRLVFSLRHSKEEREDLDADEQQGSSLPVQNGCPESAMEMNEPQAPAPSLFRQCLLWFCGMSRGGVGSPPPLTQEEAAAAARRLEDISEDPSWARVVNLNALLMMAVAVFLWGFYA

[3] = Cmax in mouse at 5 mg/kg, iv; format: ADME, organism-based; parameters: dose 5 mg/kg, route intravenous; details: in vivo
[4] = Cmax in mouse at 20 mg/kg administered via oral gavage; format: ADME, organism-based; parameters: dose 20 mg/kg, route oral; details: in vivo
[5] = Terminal half life in mouse at 5 mg/kg, iv; format: ADME, organism-based; details: in vivo, read-out: beta t1/2 (converted)
[6] = Terminal half life in mouse at 20 mg/kg administered via oral gavage; format: ADME, organism-based; details: in vivo, read-out: beta t1/2 (converted)
[7] = AUC (infinity) in mouse at 5 mg/kg, iv; format: ADME, organism-based; parameters: dose 5 mg/kg, time infinity, route intravenous; details: in vivo
[8] = AUC (infinity) in mouse at 20 mg/kg administered via oral gavage; format: ADME, organism-based; parameters: dose 20 mg/kg, route oral, time infinity; details: in vivo
[9] = Volume of distribution at steady state in mouse at 5 mg/kg, iv; format: ADME, organism-based; details: in vivo, read-out: Vdss
[10] = Systemic clearance in mouse at 5 mg/kg, iv; format: ADME, organism-based; details: in vivo
[11] = Oral bioavailability in mouse at 20 mg/kg; format: ADME, organism-based; details: in vivo
[12] = Cmax in rat at 2 mg/kg, iv; format: ADME, organism-based; parameters: dose 2 mg/kg, route intravenous; details: in vivo
[13] = Cmax in rat at 10 mg/kg administered via oral gavage; format: ADME, organism-based; parameters: dose 10 mg/kg, route oral; details: in vivo
[14] = Terminal half life in rat at 2 mg/kg, iv; format: ADME, organism-based; details: in vivo, read-out: beta t1/2 (converted)
[15] = Terminal half life in rat at 10 mg/kg administered via oral gavage; format: ADME, organism-based; details: in vivo, read-out: beta t1/2 (converted)
[16] = AUC (infinity) in rat at 2 mg/kg, iv; format: ADME, organism-based; parameters: dose 2 mg/kg, time infinity, route intravenous; details: in vivo
[17] = AUC (infinity) in rat at 10 mg/kg administered via oral gavage; format: ADME, organism-based; parameters: dose 10 mg/kg, route oral, time infinity; details: in vivo
[18] = Volume of distribution at steady state in rat at 2 mg/kg, iv; format: ADME, organism-based; details: in vivo, read-out: Vdss
[19] = Systemic clearance in rat at 2 mg/kg, iv; format: ADME, organism-based; details: in vivo
[20] = Oral bioavailability in rat at 10 mg/kg; format: ADME, organism-based; details: in vivo
[21] = Cmax in dog at 2 mg/kg, iv; format: ADME, organism-based, Canis lupus familiaris; parameters: dose 2 mg/kg, route intravenous; details: in vivo
[22] = Cmax in dog at 10 mg/kg administered via oral gavage; format: ADME, organism-based, Canis lupus familiaris; parameters: dose 10 mg/kg, route oral; details: in vivo
[23] = Terminal half life in dog at 2 mg/kg, iv; format: ADME, organism-based, Canis lupus familiaris; details: in vivo, read-out: beta t1/2 (converted)
[24] = Terminal half life in dog at 10 mg/kg administered via oral gavage; format: ADME, organism-based, Canis lupus familiaris; details: in vivo, read-out: beta t1/2 (converted)
[25] = AUC (infinity) in dog at 2 mg/kg, iv; format: ADME, organism-based, Canis lupus familiaris; parameters: dose 2 mg/kg, time infinity, route intravenous; details: in vivo
[26] = AUC (infinity) in dog at 10 mg/kg administered via oral gavage; format: ADME, organism-based, Canis lupus familiaris; parameters: dose 10 mg/kg, route oral, time infinity; details: in vivo
[27] = Volume of distribution at steady state in dog at 2 mg/kg, iv; format: ADME, organism-based, Canis lupus familiaris; details: in vivo, read-out: Vdss
[28] = Systemic clearance in dog at 2 mg/kg, iv; format: ADME, organism-based, Canis lupus familiaris; details: in vivo
[29] = Oral bioavailability in dog at 10 mg/kg; format: ADME, organism-based, Canis lupus familiaris; details: in vivo
[30] = Cmax in monkey at 2 mg/kg, iv; format: ADME, organism-based, Macaca mulatta; parameters: dose 2 mg/kg, route intravenous; details: rhesus monkey, in vivo
[31] = Cmax in monkey at 10 mg/kg administered via oral gavage; format: ADME, organism-based, Macaca mulatta; parameters: dose 10 mg/kg, route oral; details: rhesus monkey, in vivo
[32] = Terminal half life in monkey at 2 mg/kg, iv; format: ADME, organism-based, Macaca mulatta; details: rhesus monkey, in vivo, read-out: beta t1/2 (converted)
[33] = Terminal half life in monkey at 10 mg/kg administered via oral gavage; format: ADME, organism-based, Macaca mulatta; details: rhesus monkey, in vivo, read-out: beta t1/2 (converted)
[34] = AUC (infinity) in monkey at 2 mg/kg, iv; format: ADME, organism-based, Macaca mulatta; parameters: dose 2 mg/kg, route intravenous, time infinity; details: rhesus monkey, in vivo
[35] = AUC (infinity) in monkey at 10 mg/kg administered via oral gavage; format: ADME, organism-based, Macaca mulatta; parameters: dose 10 mg/kg, time infinity, route oral; details: rhesus monkey, in vivo
[36] = Volume of distribution at steady state in monkey at 2 mg/kg, iv; format: ADME, organism-based, Macaca mulatta; details: rhesus monkey, in vivo, read-out: Vdss
[37] = Systemic clearance in monkey at 2 mg/kg, iv; format: ADME, organism-based, Macaca mulatta; details: rhesus monkey, in vivo
[38] = Oral bioavailability in monkey at 10 mg/kg; format: ADME, organism-based, Macaca mulatta; details: rhesus monkey, in vivo
Rattus norvegicus [39] = test: Antidiabetic activity in Sprague-Dawley rat assessed as decrease in postprandial blood glucose level administered 1 hr prior to glucose challenge measured up to 120 mins by OGTT; format: functional, organism-based
Rattus norvegicus [40] = test: Antihyperglycemic activity in diabetic ZDF rat assessed as decrease in fed blood glucose levels at 10 mg/kg measured up to 24 hrs; format: functional, organism-based
Rattus norvegicus [41] = test: Antidiabetic activity in Sprague-Dawley rat assessed as decrease in plasma glucose AUC (0 to 120 mins) administered 1 hr prior to U13C6-glucose challenge by OGTT; format: functional, organism-based
Rattus norvegicus [42] = test: Antidiabetic activity in Sprague-Dawley rat assessed as increase in urinary glucose excrection administered 1 hr prior to U13C6-glucose challenge measured up to 4 hrs by OGTT; format: functional, organism-based

Compound: Cc1cc(O)c([C@@H]2O[C@H](CO)[C@@H](O)[C@H](O)[C@H]2O)cc1Cc1ccc2c(c1)CC2
Cmax [3]: 8200 ng/mL
Cmax [4]: 4760 ng/mL
half-life [5]: 1.25 h
half-life [6]: 2.68 h
AUC(0-inf) [7]: 4560 ng·h/mL
AUC(0-inf) [8]: 11500 ng·h/mL
Vd [9]: 1.06 L/kg
clearance [10]: 18.3 mL/min/kg
bioavailability [11]: 62.8%
Cmax [12]: 2110 ng/mL
Cmax [13]: 717 ng/mL
half-life [14]: 1.27 h
half-life [15]: 2.22 h
AUC(0-inf) [16]: 697 ng·h/mL
AUC(0-inf) [17]: 1790 ng·h/mL
Vd [18]: 2.18 L/kg
clearance [19]: 47.8 mL/min/kg
bioavailability [20]: 49%
Activity (Rattus norvegicus [41]): Dose-dependent effect
Activity (Rattus norvegicus [42]): Dose-dependent effect

Compound: COc1cc(C2CC2)c(Cc2ccc3c(c2)CC3)cc1[C@@H]1O[C@H](CO)[C@@H](O)[C@H](O)[C@H]1O
inhibition [1]: 67%
inhibition [2]: 31%

Compound: OC[C@H]1O[C@@H](c2cccc(Cc3ccc4c(c3)CC4)c2)[C@H](O)[C@@H](O)[C@@H]1O
inhibition [1]: 5%
inhibition [2]: 23%

The next lines start with results.

inhibition [1]: 67%
inhibition [2]: 35%
Compound: CN(C)c1ccc([C@@H]2O[C@H](CO)[C@@H](O)[C@H](O)[C@H]2O)cc1Cc1ccc2c(c1)CC2

Cmax [3]: 5870 ng/mL
Cmax [4]: 5680 ng/mL
half-life [5]: 2.42 h
half-life [6]: 3.29 h
AUC(0-inf) [7]: 6390 ng·h/mL
AUC(0-inf) [8]: 25500 ng·h/mL
Vd [9]: 2.19 L/kg
clearance [10]: 13 mL/min/kg
bioavailability [11]: 99%
Cmax [12]: 1110 ng/mL
Cmax [13]: 634 ng/mL
half-life [14]: 2.17 h
half-life [15]: 2.48 h
AUC(0-inf) [16]: 697 ng·h/mL
AUC(0-inf) [17]: 2650 ng·h/mL
Vd [18]: 4.01 L/kg
clearance [19]: 48.3 mL/min/kg
bioavailability [20]: 78%
Cmax [21]: 9600 ng/mL
Cmax [22]: 20100 ng/mL
half-life [23]: 7.93 h
half-life [24]: 12.8 h
AUC(0-inf) [25]: 50800 ng·h/mL
AUC(0-inf) [26]: 332000 ng·h/mL
Vd [27]: 0.4 L/kg
clearance [28]: 0.68 mL/min/kg
bioavailability [29]: 107%
Cmax [30]: 9110 ng/mL
Cmax [31]: 7180 ng/mL
half-life [32]: 4.71 h
half-life [33]: 4.45 h
AUC(0-inf) [34]: 9210 ng·h/mL
AUC(0-inf) [35]: 40500 ng·h/mL
Vd [36]: 0.91 L/kg
clearance [37]: 3.74 mL/min/kg
bioavailability [38]: 88%
Compound: OC[C@H]1O[C@@H](c2ccc(Cl)c(Cc3ccc4c(c3)CC4)c2)[C@H](O)[C@@H](O)[C@@H]1O
Activity (Rattus norvegicus [39]): Active
Activity (Rattus norvegicus [40]): Active

inhibition [1]: 0%
inhibition [2]: 43%
Compound: N#Cc1ccc([C@@H]2O[C@H](CO)[C@@H](O)[C@H](O)[C@H]2O)cc1Cc1ccc2c(c1)CC2

Source: ChEMBL document CHEMBL4219126, “Synthesis and biological evaluation of benzocyclobutane-C-glycosides as potent and orally active SGLT1/SGLT2 dual inhibitors” (Bioorg Med Chem Lett, 2018)
